In patent US6479487B1, “6, 9-disubstituted 2-[trans-(4-aminocyclohexyl)amino] purines” (Aventis Pharmaceuticals Inc., priority 1998, dated 2002) one finds IC50 data, which are given here for seven compounds.

Values joined by “and” are separate entries in the source; they are usually repeats but may differ in a detail not shown here. Equal values may be shown once. Where a name gives a salt, the structure may show the parent alone. Read-outs that look alike come from different tables or passages of the source.

One experiment concerns the target T1, cdk4/cyclin D1 (Homo sapiens, UniProt P11802).
T1 construct: made in house; host or cells: Sf9 insect cells (Bac-to-Bac baculovirus, pFastBac)
Put plainly: Cyclin-dependent Kinase 4 Assay (cdk4/cyclin D1, GST-Rb substrate). The format is biochemical. The conditions noted are these: cdk4/cyclin D1 insect cell lysate, 10 μM ATP, 30 min at 37° C., several values = separate determinations, read-out: CDK4 Inhibition IC50. The method, then: The IC50 values for cdk4 inhibition were by the following method:
The transformed bacteria were grown overnight to saturation, then diluted in YT broth and incubated at 37° C. for 2 h. The protein was induced by incubation with 0.1 mM isopropylthioglycoside for 3 h. Following sedimentation by centrifugation, the cells were lysed by sonication in STE buffer ([…] NaCl, 10 mM Tris, pH 8.0, 1 mM EDTA) containing 10% sarkosyl. Particulate matter was removed by centrifugation and the lysate was incubated with glutathione-Sepharose at 4° C. The beads were washed with kinase buffer and then quantitation of Coomassie blue-stained proteins separated by SDS-PAGE was performed using a protein standard of known concentration.
The cDNA for human cyclin D1 was cloned by RT PCR using […] from MCF-7 cells. […] Bacmid DNA was used to transfect Sf9 insect cells to produce recombinant virus. Following plaque purification of the virus, the viral preparations were amplified until high titer stocks were acheived.
Lysates were prepared by lysis of Sf9 cells coinfected with cdk4 and cyclin D1 in 50 mM HEPES, pH 7.5, 10 mM MgCl2, 1 mM DTT, 0.1 mM phenylmethylsulfonyl fluoride, 5 μg/ml aprotinin, and 5 μg/ml leupeptin using a PARR bomb under 500 p.s.i nitrogen pressure for 5 min at 4° C. Insoluble material was sedimented at 10,000×g for 20 min at 4° C. Glycerol was added to the supernatant to 10% and stored at −80° C. in aliquots.
Pre-wet Millipore Multiscreen 96-well filter plates (0.65 μm Durapore filters) with 200 μl kinase buffer (50 mM HEPES, pH 7.5, 10 mM MgCl2, 1 mM EGTA). GST-Rb (0.5 μg) bound to glutathione-Sepharose beads is added in 50 μl per well and the solution removed by application of vacuum. […] Add 0.1 μg cdk4/cyclin D1 (insect cell lysate) to initiate assay. Incubate 30 min at 37° C. Terminate reaction by filtration on Millipore Vacuum Manifold. Wash four times with TNEN (20 mM Tris, pH 8.0, 100 mM Na Cl, 1 mM EDTA, 0.5% nonidet P-40). After drying the plates at room temperature, the filter plates were placed in adapter plates (Packard) and 40 μl of Microscint-O® (Packard) was added to each well. Top Seal A film was used to cover the plates before counting in a Top Count Scintillation Counter.

The next experiment concerns DMS-114. The experiment in a line: In vitro tumor cell proliferation, DMS-114. The format is cell-based, human. The conditions noted are these: many values given with an undefined *, read-out: In vitro Tumor Cell Proliferation (IC50, μM) Lung DMS-114. The method, then:
DMS-1 14: human small cell lung carcinoma;
(§1) The proliferation of tumor cells was measured using a sulforhodamine B assay as described in Skehan, P., et al., J. Natl. Cancer Inst. […] Tumor cells were harvested with trypsin-EDTA, cells that excluded trypan blue were counted, added to 96-well plates and incubated overnight at 37° C. Drug was added to the wells following dilution in culture medium. Three days later, the medium was removed and replenished with medium containing fresh drug and incubated an additional 4 days. The cells were then fixed with 0.1 ml 10% trichloroacetic acid for 60 min at 4° C. The plates were rinsed five times with tap water, air-dried and stained for 30 min with 0.4% sulforhodamine B in 1% acetic acid and air-dried.
(§2) Alternatively, the CyQUANT cell proliferation assay was used to quantitate cell proliferation.
(§3) Alternatively, the CyQUANT cell proliferation assay was used to quantify tumor cell proliferation. Tumor cells were harvested with trypsin-EDTA, cells that excluded trypan blue were counted, added to 96-well plates and incubated overnight at 37° C. Drug was added to the wells following dilution in culture medium. Three days later the medium was removed and the plates frozen at −80° C. for at least 30 minutes.

The subject of a further experiment is Colo-205. The experiment in a line: In vitro tumor cell proliferation, Colo-205. The format is cell-based. The conditions noted are these: values given with an undefined *, read-out: In vitro Tumor Cell Proliferation (IC50, μM) Colon Colo-205. The method, then: as §1, §2, §3
The next experiment deals with PC-3. The experiment in a line: In vitro tumor cell proliferation, PC-3. The format is cell-based, human. The conditions noted are these: many values given with an undefined *, read-out: In vitro Tumor Cell Proliferation (IC50, μM) Prostate PC-3. The method, then:
as §1, §2, §3

For the next experiment, the system named is DU145. The experiment in a line: In vitro tumor cell proliferation, DU145. The format is cell-based, human. The conditions noted are these: many values given with an undefined *, read-out: In vitro Tumor Cell Proliferation (IC50, μM) Prostate DU145. The method, then:
as §1, §2, §3

The next experiment concerns A549. The experiment in a line: In vitro tumor cell proliferation, A549. The format is cell-based, human. The conditions noted are these: many values given with an undefined *, read-out: In vitro Tumor Cell Proliferation (IC50, μM) Lung A549. The method, then:
as §1, §2, §3

For another experiment, the system named is HT-29. Put plainly: In vitro tumor cell proliferation, HT-29. The format is cell-based, human. The conditions noted are these: many values given with an undefined *, read-out: In vitro Tumor Cell Proliferation (IC50, μM) Colon HT-29. The method, then:
as §1, §2, §3
HT-29 is a human colon adenocarcinoma, moderately well-differentiated grade II (HTB 38);

A further experiment has as its system MDA-MB-435. The experiment in a line: In vitro tumor cell proliferation, MDA-MB-435. The format is cell-based. The conditions noted are these: values given with an undefined *, read-out: In vitro Tumor Cell Proliferation (IC50, μM) Breast MDA-MB-435. The method, then:
as §1, §2, §3

Another experiment has as its system MDA-MB-231. Put plainly: In vitro tumor cell proliferation, MDA-MB-231. The format is cell-based, human. The conditions noted are these: sulforhodamine B or CyQUANT assay, many values given with an undefined *, read-out: In vitro Tumor Cell Proliferation (IC50, μM) Breast MDA-MB-231. The method, then: as §1, §2, §3
MDA-MB-23 1 is a human breast adenocarcinoma, hormone-independent (HTB 26);

A further experiment has as its target T2, cdk2/cyclin E (Homo sapiens, UniProt P24941).
T2 construct: made in house; host or cells: insect cells (baculovirus co-infection)
Put plainly: Cyclin-Dependent Kinase 2 Assay (cdk2/cyclin E, GST-Rb substrate). The conditions noted are these: recombinant cdk2/cyclin E, 10 μM ATP, 30 min at 30° C., several values in a cell = separate determinations, read-out: CDK-2 Inhibition IC50. The format is biochemical. The method, then:
Substrate: GST-Rb as described above for cdk4/cyclin D1
Assay conditions for cdk2/cyclin E were identical to those for cdk4/cyclin D1 including the substrate. The concentration of recombinant cdk2/cyclin E in the assay was 0.1 μg per 100 μl assay. Incubation was for 30 min at 30° C.

Where [1] appears, read: Homo sapiens, MDA-MB-231, MDA-MB-231.

T1 sequence (P11802 whole entry): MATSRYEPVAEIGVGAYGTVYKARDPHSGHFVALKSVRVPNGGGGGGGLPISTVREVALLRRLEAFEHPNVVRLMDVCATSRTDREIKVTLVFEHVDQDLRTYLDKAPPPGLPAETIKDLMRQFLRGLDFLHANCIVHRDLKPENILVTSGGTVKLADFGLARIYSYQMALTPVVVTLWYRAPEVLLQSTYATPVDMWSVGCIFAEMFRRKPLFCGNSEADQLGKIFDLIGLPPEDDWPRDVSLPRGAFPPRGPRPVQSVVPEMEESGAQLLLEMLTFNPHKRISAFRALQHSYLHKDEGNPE
T1 sequence (P24385 whole entry partner): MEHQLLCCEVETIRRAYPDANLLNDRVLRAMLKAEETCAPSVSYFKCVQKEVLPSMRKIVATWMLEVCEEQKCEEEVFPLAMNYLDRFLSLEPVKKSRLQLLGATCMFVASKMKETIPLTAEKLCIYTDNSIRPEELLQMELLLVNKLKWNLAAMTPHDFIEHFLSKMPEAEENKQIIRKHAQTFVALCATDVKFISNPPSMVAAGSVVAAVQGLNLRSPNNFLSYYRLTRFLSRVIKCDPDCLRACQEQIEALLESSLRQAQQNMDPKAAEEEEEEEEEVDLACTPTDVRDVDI

Consider “2-[Trans-(4-aminocyclohexyl)amino]-6-[4-[1-(2,5-difluorobenzyl)]piperidinylamino-9-cyclopentylpurine trihydrochloride [Example 147-f]”, for which the IC50 on cdk4/cyclin D1 (trihydrochloride) is 1.1 µM and 2.1 µM; with DMS-114 (DMS-114, trihydrochloride) it was 0.67 µM and 0.36 µM; in the experiment on Colo-205 (Colo-205, trihydrochloride), 0.31 µM and 0.25 µM; in the experiment on PC-3 (PC-3, trihydrochloride), 0.36 µM and 0.45 µM; with DU145 (DU145, trihydrochloride), 0.31 µM and 0.29 µM; in the experiment with A549 (A549, trihydrochloride), 0.3 µM. Also, the IC50 was 0.4 µM and 0.34 µM in the experiment with HT-29 (HT-29, trihydrochloride); 0.5 µM and 0.49 µM with MDA-MB-435 (MDA-MB-435, trihydrochloride); 0.41 µM and 0.38 µM in the experiment on MDA-MB-231 (MDA-MB-231, trihydrochloride).
Take `N[C@H]1CC[C@H](Nc2nc(NNc3c(Cl)cccc3Cl)c3ncn(C4CCCC4)c3n2)CC1` [Example 20, 2-[Trans-(4-aminocyclohexyl)amino]-6-[2,6-dichlorophenylhydrazino]-9-cyclopentylpurine dihydrochloride]: the IC50 on cdk2/cyclin E was determined as 0.497 µM; in the experiment on DMS-114 (Homo sapiens, DMS-114, DMS-114), 7.5 µM; in the experiment on PC-3 (Homo sapiens, PC-3, PC-3), 7.9 µM; in the experiment with DU145 (Homo sapiens, DU-145, DU145), 6.5 µM; in the experiment with A549 (A549, dihydrochloride), 4.8 µM; in the experiment on A549 (Homo sapiens, A549, A549), 5.6 µM. Also, the IC50 in the experiment with HT-29 (Homo sapiens, HT-29, HT-29) came to 7.6 µM; in the experiment on MDA-MB-435 (Homo sapiens, MDA-MB-435, MDA-MB-435), 11 µM; in the experiment on MDA-MB-231 (setting [1]) it was 4.8 µM.
Regarding `COc1ccc(CN2CCC(Nc3nc(N[C@H]4CC[C@H](N)CC4)nc4c3ncn4C3CCCC3)CC2)cc1` [Example 39, 2-[Trans-(4-aminocyclohexyl)amino]-6-[4-(1-(4-methoxybenzyl))piperidinylamino]-9-cyclopentylpurine], the IC50 was 0.32 µM and 0.22 µM in the experiment on DMS-114 (DMS-114); 0.28 µM and 0.17 µM in the experiment on Colo-205 (Colo-205); 0.28 µM and 0.36 µM with PC-3 (PC-3); 0.28 µM and 0.27 µM with DU145 (DU145); 0.17 µM in the experiment on A549 (A549); 0.32 µM and 0.22 µM in the experiment on HT-29 (HT-29). For the same compound, the IC50 with MDA-MB-435 (MDA-MB-435) is 0.23 µM and 0.35 µM; in the experiment on MDA-MB-231 (MDA-MB-231) it was 0.18 µM.
As to `COc1cccc(CN2CCC(Nc3nc(N[C@H]4CC[C@H](N)CC4)nc4c3ncn4C3CCCC3)CC2)c1` [Example 41, 2-[Trans-(4-aminocyclohexyl)amino]-6-[4-(1-(3-methoxybenzyl))piperidinylamino]-9-cyclopentylpurine], the IC50 at cdk4/cyclin D1 was 0.75 µM and 1.4 µM; in the experiment on DMS-114 (DMS-114), 0.38 µM and 0.29 µM; in the experiment with Colo-205 (Colo-205), 0.25 µM and 0.21 µM; in the experiment on PC-3 (PC-3), 0.27 µM and 0.42 µM; with DU145 (DU145), 0.29 µM and 0.23 µM; in the experiment on A549 (A549), 0.19 µM. Besides, the IC50 in the experiment with HT-29 (HT-29) is 0.32 µM; in the experiment on MDA-MB-435 (MDA-MB-435), 0.35 µM and 0.36 µM; in the experiment on MDA-MB-231 (MDA-MB-231) it was 0.29 µM and 0.32 µM.
Consider `COc1cc(CNc2nc(NC3CCC(N)CC3)nc3c2ncn3C2CCCC2)cc(OC)c1OC` (stereo not drawn) [Example 147-ae], for which the IC50 on cdk2/cyclin E was 0.14 µM; with DMS-114 (Homo sapiens, DMS-114, DMS-114), 8.7 µM; in the experiment on Colo-205 (Colo-205), 8.6 µM; with Colo-205 (Homo sapiens, COLO 205, Colo-205), 11 µM; in the experiment on DU145 (DU145), 6.7 µM; with DU145 (Homo sapiens, DU-145, DU145), 12 µM. Also, the IC50 was 11 µM in the experiment on A549 (Homo sapiens, A549, A549); 10 µM with HT-29 (Homo sapiens, HT-29, HT-29); 11 µM in the experiment with MDA-MB-435 (MDA-MB-435); 6.5 µM in the experiment on MDA-MB-231 (setting [1]); 6.6 µM in the experiment on MDA-MB-231 (MDA-MB-231).
With `Cc1cccc(CN2CCC(Nc3nc(N[C@H]4CC[C@H](N)CC4)nc4c3ncn4C3CCCC3)CC2)c1` [Example 147-i, 2-[Trans-(4-aminocyclohexyl)amino]-6-[4-[1-(3-methylbenzyl)]piperidinylamino]-9-cyclopentylpurine trihydrochloride], the IC50 in the experiment on DMS-114 (DMS-114, trihydrochloride) is 0.39 µM and 0.26 µM; with Colo-205 (Colo-205, trihydrochloride), 0.24 µM and 0.27 µM; in the experiment on PC-3 (PC-3, trihydrochloride), 0.23 µM and 0.41 µM; in the experiment with DU145 (DU145, trihydrochloride) it was 0.23 µM; in the experiment on A549 (A549, trihydrochloride), 0.17 µM and 0.18 µM; in the experiment with HT-29 (HT-29, trihydrochloride), 0.33 µM. Further, the IC50 was 0.3 µM and 0.45 µM in the experiment on MDA-MB-435 (MDA-MB-435, trihydrochloride); 0.3 µM and 0.34 µM in the experiment with MDA-MB-231 (MDA-MB-231, trihydrochloride).
Turning to `COc1ccccc1CN1CCC(Nc2nc(N[C@H]3CC[C@H](N)CC3)nc3c2ncn3C2CCCC2)CC1` [Example 147-q, 2-[Trans-(4-aminocyclohexyl)amino]-6-[4-1-(2-methoxybenzyl)]piperidinylamino-9-cyclopentylpurine trihydrochloride], the IC50 is 0.69 µM and 1.3 µM on cdk4/cyclin D1 (trihydrochloride); 0.4 µM and 0.21 µM with DMS-114 (DMS-114, trihydrochloride); 0.17 µM and 0.19 µM with Colo-205 (Colo-205, trihydrochloride); 0.33 µM and 0.4 µM in the experiment with PC-3 (PC-3, trihydrochloride); 0.29 µM and 0.32 µM in the experiment on DU145 (DU145, trihydrochloride); 0.18 µM and 0.19 µM in the experiment on A549 (A549, trihydrochloride). Besides, the IC50 with HT-29 (HT-29, trihydrochloride) was 0.32 µM and 0.38 µM; with MDA-MB-435 (MDA-MB-435, trihydrochloride) it was 0.36 µM and 0.33 µM; in the experiment with MDA-MB-231 (MDA-MB-231, trihydrochloride), 0.19 µM and 0.25 µM.
